One data set is described as follows: LYSA solubility assay. Type of data set: physicochemical. As to conditions: for solubility thermodynamic: 0.05 M phosphate buffer, pH 6.5, aqueous buffer, thermodynamic from solid; for LYSA: 0.05 M phosphate buffer (pH 6.5). The protocol: LYSA study is used to determine the aqueous solubility of tested compounds. Samples are prepared in duplicate from 10 mM DMSO stock solution. After evaporation of DMSO with a centrifugal vacuum evaporator, compounds are dissolved in a 0.05 M phosphate buffer (pH 6.5), stirred for one hr and shaken for two hrs. After one night, the solutions are filtered using a microtiter filter plate. Then the filtrate and its 1/10 dilution are analyzed by HPLC-UV. In addition, a four-point calibration curve is prepared from the 10 mM stock solutions and used for the solubility determination of the compounds. The results are in μg/mL. In case the percentage of sample measured in solution after evaporation divided by the calculated maximum of sample amount is bigger than 80%, the solubility is reported as bigger than this value.

Another data set deals with T1, human TLR8 (Homo sapiens, UniProt Q9NR97).
T1 construct: host or cells: HEK293 (HEK-Blue hTLR8)
T1 sequence (Q9NR97 27-1041): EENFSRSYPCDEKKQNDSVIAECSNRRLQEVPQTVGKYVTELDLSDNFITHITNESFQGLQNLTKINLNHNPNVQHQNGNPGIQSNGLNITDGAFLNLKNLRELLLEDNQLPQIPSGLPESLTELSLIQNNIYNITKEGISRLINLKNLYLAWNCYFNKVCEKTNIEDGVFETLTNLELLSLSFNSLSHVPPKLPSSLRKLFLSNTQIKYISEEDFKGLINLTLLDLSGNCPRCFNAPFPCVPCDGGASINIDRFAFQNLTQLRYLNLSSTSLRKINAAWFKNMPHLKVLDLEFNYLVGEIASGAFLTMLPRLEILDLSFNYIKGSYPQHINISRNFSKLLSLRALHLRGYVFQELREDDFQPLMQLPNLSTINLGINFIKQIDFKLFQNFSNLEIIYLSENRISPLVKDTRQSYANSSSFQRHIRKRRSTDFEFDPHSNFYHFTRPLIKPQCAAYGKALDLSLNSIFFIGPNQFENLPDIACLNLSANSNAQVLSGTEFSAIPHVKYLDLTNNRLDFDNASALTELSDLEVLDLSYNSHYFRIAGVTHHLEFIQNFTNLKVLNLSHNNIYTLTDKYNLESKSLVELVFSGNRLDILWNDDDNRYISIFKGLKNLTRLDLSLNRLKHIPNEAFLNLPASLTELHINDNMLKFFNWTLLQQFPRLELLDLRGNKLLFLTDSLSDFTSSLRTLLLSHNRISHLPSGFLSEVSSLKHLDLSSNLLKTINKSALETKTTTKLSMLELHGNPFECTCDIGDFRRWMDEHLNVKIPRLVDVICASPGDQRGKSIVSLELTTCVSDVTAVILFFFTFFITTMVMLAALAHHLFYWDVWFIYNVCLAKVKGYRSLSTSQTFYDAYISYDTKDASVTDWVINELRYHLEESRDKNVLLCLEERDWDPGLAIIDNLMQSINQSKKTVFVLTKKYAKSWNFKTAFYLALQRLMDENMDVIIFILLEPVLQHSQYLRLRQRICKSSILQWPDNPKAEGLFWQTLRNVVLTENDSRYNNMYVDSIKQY
Kind of data set: HEK293-Blue-hTLR-8 cells assay (SEAP reporter, R848 stimulation). It is filed as cell-based. The note with it: HEK293-Blue-hTLR8 cells, R848, 20 hrs. As for the experimental part: The following tests were carried out in order to determine the activity of the compounds of formula (I) in HEK293-Blue-hTLR-7/8/9 cells assay.
HEK293-Blue-hTLR-8 Cells Assay:
A stable HEK293-Blue-hTLR-8 cell line was purchased from InvivoGen (Cat. #: hkb-htlr8, San Diego, Calif., USA). These cells were originally designed for studying the stimulation of human TLR8 by monitoring the activation of NF-κB. A SEAP (secreted embryonic alkaline phosphatase) reporter gene was placed under the control of the IFN-β minimal promoter fused to five NF-κB and AP-1-binding sites. The SEAP was induced by activating NF-κB and AP-1 via stimulating HEK-Blue hTLR8 cells with TLR8 ligands. Therefore the reporter expression was declined by TLR8 antagonist under the stimulation of a ligand, such as R848, for incubation of 20 hrs. The cell culture supernatant SEAP reporter activity was determined using QUANTI-Blue™ kit (Cat #. rep-qbl, Invivogen, San Diego, Calif., USA) at a wavelength of 640 nm, a detection medium that turns purple or blue in the presence of alkaline phosphatase.
HEK293-Blue-hTLR8 cells were incubated at a density of 250,000˜450,000 cells/mL in a volume of 170 μL in a 96-well plate in Dulbecco's Modified Eagle's medium (DMEM) containing 4.5 g/L glucose, 50 U/mL penicillin, […], […], 2 mM L-glutamine, 10% (v/v) heat-inactivated fetal bovine serum with addition of 20 μL test compound in a serial dilution in the presence of final DMSO at 1% and 10 μL of 60 μM R848 in above DMEM, perform incubation under 37° C. in a CO2 incubator for 20 hrs. Then 20 μL of the supernatant from each well was incubated with 180 μL Quanti-blue substrate solution at 37° C. for 2 hrs and the absorbance was read at 620˜655 nm using a spectrophotometer. The signalling pathway that TLR8 activation leads to downstream NF-KB activation has been widely accepted, and therefore similar reporter assay was modified for evaluating TLR8 antagonist.

In brackets after ≈: the same amount, converted by molar mass.

By solubility (thermodynamic) is commonly meant the concentration in solution at equilibrium with solid. One may read the IC50 as the concentration at which inhibition is half-maximal. Read a low IC50 as higher potency. In the case of `C[C@@H]1CN(c2ccc(C(F)(F)F)c3ncccc23)C[C@H](C(=O)NC[C@@H]2C[C@@H](F)CN2)O1` [Example 27, (2R,6R)-N-[[(2S,4R)-4-fluoropyrrolidin-2-yl]methyl]-6-methyl-4-[8-(trifluoromethyl)-5-quinolyl]morpholine-2-carboxamide], the solubility (thermodynamic) in “LYSA solubility assay” is above 585 µg/mL. Moreover, the IC50 on human TLR8 is 21 nM.
In “LYSA solubility assay”, `C[C@@H]1CN(c2ccc(C(F)(F)F)c3ncccc23)C[C@H](C(=O)NC2C3CNCC2COC3)O1` (single isomer, unassigned) [Example 46B] returned an LYSA above 667.0 µg/mL. The compound further gave an IC50 on human TLR8 of 55 nM.
Take `C[C@@H]1CN(c2ccc(C(F)(F)F)c3ncccc23)C[C@H](C(=O)N2CCC3(CCNCC3)CC2)O1` [Example 32, 3,9-diazaspiro[5.5]undecan-3-yl-[(2R,6R)-6-methyl-4-[8-(trifluoromethyl)-5-quinolyl]morpholin-2-yl]methanone]: the solubility (thermodynamic) in “LYSA solubility assay” was above 640 µg/mL. It took 20 nM to reach half-maximal inhibition at human TLR8 (IC50).
On the same counts, the results for `C[C@@H]1CN(c2ccc(C(F)(F)F)c3ncccc23)C[C@H](C(=O)NC2CNCCOC2)O1` (stereo partly drawn) [Example 14, (2R,6R)-6-methyl-N-(1,4-oxazepan-6-yl)-4-[8-(trifluoromethyl)-5-quinolyl]morpholine-2-carboxamide] are above 695 µg/mL and 7 nM.
The corresponding values for `C[C@@H]1CN(c2ccc(C(F)(F)F)c3ncccc23)C[C@H](C(=O)NCC(C)(C)N)O1` [Example 6, (2R,6R)-N-(2-amino-2-methyl-propyl)-6-methyl-4-[8-(trifluoromethyl)-5-quinolyl]morpholine-2-carboxamide] are above 640 µg/mL and 26 nM.
On the same counts, the results for `C[C@@H]1CN(c2ccc(C(F)(F)F)c3ncccc23)C[C@H](C(=O)NC2CC3COCC(C2)N3)O1` (stereo partly drawn) [Example 33, (2R,6R)-6-methyl-N-(3-oxa-9-azabicyclo[3.3.1]nonan-7-yl)-4-[8-(trifluoromethyl)-5-quinolyl]morpholine-2-carboxamide] are 350 µg/mL (≈ 754 µM) and below 3 nM.
In the data set “LYSA solubility assay”, `C[C@@H]1CN(c2ccc(C(F)(F)F)c3ncccc23)C[C@H](C(=O)NC[C@@H]2CC(F)(F)CN2)O1` [Example 30] returned a thermodynamic solubility of 375 µg/mL (≈ 818 µM). Also, on human TLR8, 130 nM corresponded to half-maximal inhibition (IC50).
On the same counts, the results for `C[C@@H]1CN(c2ccc(I)c3ncccc23)C[C@H](C(=O)NC2CCN(C)CC2)O1` [Example 38, (2R,6R)-4-(8-iodo-5-quinolyl)-6-methyl-N-(1-methyl-4-piperidyl)morpholine-2-carboxamide] are above 650 µg/mL and below 3 nM.
`C[C@@H]1CN(c2ccc(C(F)(F)F)c3ncccc23)C[C@H](C(=O)NC2CC3CNCC32)O1` (single isomer, unassigned) [Example 49C] displayed an LYSA in the data set “LYSA solubility assay” above 710.0 µg/mL. This compound yielded an IC50 against human TLR8 of 5 nM.
Regarding `C#Cc1ccc(N2C[C@@H](C)O[C@@H](C(=O)NC3CCN(C)CC3)C2)c2cccnc12` [Example 43, (2R,6R)-4-(8-ethynyl-5-quinolyl)-6-methyl-N-(1-methyl-4-piperidyl)morpholine-2-carboxamide], the solubility (thermodynamic) in the data set “LYSA solubility assay” is above 560 µg/mL. Besides, the IC50 against human TLR8 is below 3 nM.
The compound `C[C@@H]1CN(c2ccc(C(F)(F)F)c3ncccc23)C[C@H](C(=O)NC2C3CNCC2COC3)O1` (single isomer, unassigned) [Example 46A] yielded a solubility (thermodynamic) in “LYSA solubility assay” above 650 µg/mL. On human TLR8, this compound had an IC50 of 16 nM.
In “LYSA solubility assay”, `C[C@@H]1CN(c2ccc(I)c3ncccc23)C[C@H](C(=O)NC2CNCC2F)O1` (stereo partly drawn) [Example 40, cis-(2R,6R)-N-[4-fluoropyrrolidin-3-yl]-4-(8-iodo-5-quinolyl)-6-methyl-morpholine-2-carboxamide] returned a solubility (thermodynamic) of 555 µg/mL (≈ 1150 µM). Also, at human TLR8, the IC50 was below 3 nM.
The corresponding values for `C[C@@H]1CN(c2ccc(C(F)(F)F)c3ncccc23)C[C@H](C(=O)N[C@H]2CNC[C@H]2F)O1` (single isomer, unassigned) [Example 2B] are above 625 µg/mL and 8 nM.
In turn, `C[C@@H]1CN(c2ccc(C(F)(F)F)c3ncccc23)C[C@H](C(=O)N2CCC3(CCNC3)C2)O1` (some centres unmarked) [Example 36] registered a thermodynamic solubility in the data set “LYSA solubility assay” above 595 µg/mL. In addition, 25 nM corresponded to half-maximal inhibition against human TLR8 (IC50).
The corresponding values for `C[C@@H]1CN(c2ccc(Br)c3ncccc23)C[C@H](C(=O)NC2CNCC2F)O1` (stereo partly drawn) [Example 41, cis-(2R,6R)-4-(8-bromo-5-quinolyl)-N-[4-fluoropyrrolidin-3-yl]-6-methyl-morpholine-2-carboxamide] are above 675 µg/mL and below 3 nM.
`C[C@@H]1CN(c2ccc(C(F)(F)F)c3ncccc23)C[C@H](C(=O)NC2CNCC(F)(F)C2)O1` (stereo partly drawn) [Example 28, (2R,6R)-N-(5,5-difluoro-3-piperidyl)-6-methyl-4-[8-(trifluoromethyl)-5-quinolyl]morpholine-2-carboxamide]: the solubility (thermodynamic) in the data set “LYSA solubility assay” is 480 µg/mL (≈ 1050 µM). Half-maximal inhibition against human TLR8 (IC50) was put at 86 nM.

These data come from patent US20220363665A1, “QUINOLINE COMPOUNDS FOR THE TREATMENT OF AUTOIMMUNE DISEASE” (Hoffmann-La Roche Inc., priority 2019, published 2022).
